Legend:
dermal ECM deposition = conditions: intraperitoneally, added to food, or applied locally; Pines et al. 2003; cited from earlier work
[1] = system: CD4+ T cell, CD8+ T cell, and B220+ B cell activation; conditions: from PCT/US08/09774; cited from earlier work
[2] = system: primary human prostate stromal (hPrSc) cells, col1a1; assay: Type I collagen (col1a1) mRNA in primary human prostate stromal cells; assay type: cell-based; conditions: treated twice for 48 hours, FIG. 27
Description: Primary human prostate stromal (hPrSc) cells were left in low-serum media (0.2%) for 24 hours, and treated consecutively twice for 48 hours, halofuginone (HF) or halofuginol (HFol) at the concentrations indicated. Relative mRNA levels of the myofibroblastic markeralpha 1 collagen type 1 (col1a1) was measured by quantitative real-time PCR using glyceraldehyde-3-phosphate dehydrogenase (GAPDH) as internal control.

[3] = Anti-HF ELISA of intracellular HF levels; assay type: in vitro ADME, mouse
Description: MEFs were incubated with the indicated concentration of HF in the presence or absence of 2 mM proline for 2 hours, washed twice in cold PBS, and lysed in 1% NP40. Lysates were then tested for HF levels in comparison to a standard curve using known concentrations of HF with an anti-HF antibody based ELISA assay (see Examples). […] Similar results were obtained in three separate experiments.
Polyclonal anti-HF antibody was raised by immunizing rabbits with KLH coupled to an HF derivative (MAZ1356, FIG. 1) containing a linker attached to the quinazolinone and terminated by a primary amino group. Antibody was affinity purified using MAZ1356 linked to NHS-agarose. For the ELISA assay (FIG. 17), MAZ1356 was coupled to 96-well Reacti-bind Plates (Pierce). After binding, plates were blocked with 10% goat serum in PBS/0.2% Tween-20 (PBST). […] Captured antibody was quantitated using TMB based colorimetric detection (Pierce), and a standard curve for HF concentration fitted from the colorimetric data. […] To determine HF concentration in cells, 8 μl of cleared lysate (or control buffer) was incubated with anti-HF antibody in MAZ1356 bound wells, and captured antibody detected and quantitated as described above. HF concentration was then determined by fitting colorimetry results with cell samples to a standard curve of HF concentration. […]

[4] = system: prolyl-tRNA charging in the RRL system; assay: tRNA charging in RRL (14C Pro or 35S Met incorporation into tRNA); conditions: FIG. 2D
[5] = system: Th17 cell differentiation (primary murine CD4+ CD25- T cells); conditions: from PCT/US08/09774; read-out: 50% inhibition of Th17 cell development; cited from earlier work
[6] = system: translation in rabbit reticulocyte lysate (RRL); assay: In vitro translation assay in rabbit reticulocyte lysate (RRL)
[7] = system: mouse embryo fibroblasts (MEFs); assay: HF and proline effects on mouse embryo fibroblasts (gene expression, ECM protein production, protein synthesis); assay type: cell-based
Description: A) Primary murine CD4^+ CD25^− T cells were activated through the T-cell receptor in Th17 polarizing conditions (Sundrud et al. Science 324:1334-8 (2009)) in the presence of either 10 nM MAZ1310 or HF and the following amino acid supplements: 10× concentration of essential (EAA) or non-essential (NEAA) amino acids mixtures (Biowhittaker or Invitrogen, respectively), or 10× concentrations (1 mM) of indicated individual amino acids. Data are presented as mean percentage of Th17 (IL-17+ IFNg−) cells +/−SD from triplicate wells. B) Th17 differentiation was assayed as described above, in the absence or presence of HF or borrelidin, with or without 1 mM threonine or proline supplementation. C) MEFs were treated with or without HF (50 nM) and/or proline (2 mM) for 4 hours (CHOP, S100A4) or 24 hours (ColIA1, Col1A2). mRNA expression was normalized to expression of TBP and is shown relative to untreated control. […] Confidence intervals (p-value) for the effect of HF alone versus HF+Pro were determined using a two-tailed Student's t test. Data are representative of two separate experiments. D) Cells were pre-incubated for 24 hours with HF and proline as indicated, and secretion of Type I procollagen was measured after 24 hours in conditioned medium of cells plated by Western blot and quantitated using Image J software (top panel). Total protein synthesis was measured as TCA-precipitable ^35S in a scintillation counter (bottom panel).
MEFs were incubated for 4 hours in HF with or without 2 mM proline, to measure new collagen production in conditioned medium. Cells were washed into fresh DMEM/0.2% FBS, and proline or HF re-added, and either conditioned medium (for Type I procollagen) or total cell lysate (for fibronectin, c-actin) and were harvested after 24 hours. Triplicate plates of cells for each condition were treated, harvested, and blotted in parallel. Protein levels were assayed by Western blot, detected using chemiluminescence, and film exposure was quantitated using Image J software.
For assays of HF and proline effects on fibroblasts, mouse embryo fibroblasts were grown in 10% FCS/DMEM. For studies of TGFβ signaling, ^35S methionine incorporation into total protein, and collagen production, cells were shifted into 0.2% FCS/DMEM 24 hours before the addition of HF or proline. For examination of protein expression and phosphorylation, cells were lysed in RIPA with 5 mM EDTA, 1× PhosStop (Roche), and 1× Complete protease inhibitor mix (Roche), and assayed by Western blot as described above. For analysis of gene expression, cells were lysed in Trizol (Invitrogen) and gene expression quantitated by quantitative RT-PCR using the Roche UPR Light-Cycler system.

[8] = inhibitor 1 μM, anti-myc Western blot, FIG. 2C

O=C(C[C@H]1NCCC[C@@H]1O)Cn1cnc2cc(Br)c(Cl)cc2c1=O (racemic) [HF, 7-bromo-6-chloro-3-[3-(3-hydroxy-2-piperidinyl)-2-oxopropyl]-4(3H)-quinazolinone]
excess dermal ECM deposition (dermal ECM deposition): reduces
concentration that generally inhibits CD4+ T cell, CD8+ T cell, and B220+ B cell activation [1]: 20 to 40 nM
Type 1 collagen expression in fibroblasts in culture [2]: inhibit
effect of proline addition on intracellular accumulation of HF ([3]; 2 mM proline, 2 hours, FIG. 17): not affected
absolute HF concentration inside cells ([3]; MEFs incubated with 20 nM HF for 2 hours, packed cell volume estimated as 4 μl): ~800 nM
incorporation of 14C-Pro into tRNA [4]: inhibited
IC50 [5]: ~3 nM
translation of Nopropep (proline-free polypeptide) [6, 8]: no effect
translation of Propep (proline dipeptide containing polypeptide) [6, 8]: prevent translation
inhibition of translation of luciferase RNA in RRL ([6]; luminescence assay, FIG. 2A/2B): inhibited
production of secreted Type I procollagen and fibronectin ([7]; 24 hours treatment, FIG. 6D): dramatically inhibited
mRNA levels of Col1A1, Col1A2, and S100A4 ([7]; MEFs, HF 50 nM, 4 or 24 hours, FIG. 6C): inhibits
expression of mRNA encoding CHOP ([7]; MEFs, HF 50 nM, 4 hours, FIG. 6C): stimulated
35S-methionine incorporation into total protein ([7]; same doses as ECM protein inhibition, FIG. 6D): did not significantly change

— patent US10155742B2, “Halofuginol derivatives and their use in cosmetic and pharmaceutical compositions” (President and Fellows of Harvard College, priority 2012, dated 2018)
